According to PMC8111499, “GW117: A novel serotonin (5‐HT2C) receptor antagonist and melatonin (MT1/MT2) receptor agonist with potential antidepressant‐like activity in rodents” (CNS Neuroscience & Therapeutics, 2021):

Experiments:
mice [1] = experiment: Locomotor activity in mice; type: in vivo, ICR mice; settings: for Locomotor activity, Crossing number / Locomotor activity, Rearing number: Mice, mean ± S.E.M.
Protocol: In order to confirm whether GW117 has an antidepressant activity, we used spontaneous activities in mice and rats to determine whether GW117 affects the central system. 64 ICR mice were randomly allocation to five therapy groups ([…]): control group, 5 mg/kg GW117, 10 mg/kg GW117, 20 mg/kg GW117, and 40 mg/kg GW117. All rats and mice received one administration (p.o.). After sixty minutes of gavage administration, each mouse or rat was located in the corner of an open field chamber (36 × 29 × 23 cm for mice; 76 × 76 × 46 cm for rats) to adapt to 5 min. The numbers of crossings and rearings were recorded during the subsequent 5 min.

CUS rats = experiment: Sucrose preference test in CUS rats; type: in vivo; settings: chronic, 5, 10, 20, and 40 mg/kg, vs. CUS‐vehicle
Protocol: In order to further examine the antidepressant effects of GW117, chronic unpredictable stress (CUS) model was utilized; the methods were as described before. ^29 , ^31 After 1 week of training, rats underwent sucrose training of 48 h. After training, a sucrose baseline test was performed. […] Gastric gavage was given 1 h before the stress (08:00–09:00). Except for the non‐stressed group, all rats were stimulated by a series of stressors. stress methods included the following: fast on food and water (24 h), moisture cage (150 g sawdust bedding in 200 ml water), overnight illumination, low‐intensity strobe illumination (100 flashes/min), forced swimming (5 min at 10℃), white noise (110 dB), tail pinch (1 cm from tail root, 6 min), 45℃ cage tilt, and restraint (1–2 h). Stressors need to be used continuously and randomly. Non‐stressed rats received free food and water, but were required to fast for 14 h before sucrose preference test. After 4 weeks of stress, the sucrose preference test (SPT) (on day 25), open field test (OFT) (on day 28), and novelty‐suppressed feeding (NSF) test (on day 29) were carried out.
The SPT was performed as previously reported. ^32 Rats were trained to administer sucrose water solution after 48 h fasting and water deprivation. […] Sucrose and water intake were measured, and sucrose preference was calculated: SP =sucrose intake ×100%/ (sucrose intake +water intake). […]

5‐HT2C receptor = biological target: T1, 5‐HT2C receptor (Rattus norvegicus, UniProt P08909); experiment: 5‐HT2C receptor binding assay ([3H]‐LSD competition); settings: mean ± SEM, three independent experiments
T1 construct: 5‐HT2C receptor membrane protein was extracted from rat hippocampus and a stably transfected HEK293 cell line; from tissue; host or cells: rat hippocampus
T1 sequence (P08909 33-460): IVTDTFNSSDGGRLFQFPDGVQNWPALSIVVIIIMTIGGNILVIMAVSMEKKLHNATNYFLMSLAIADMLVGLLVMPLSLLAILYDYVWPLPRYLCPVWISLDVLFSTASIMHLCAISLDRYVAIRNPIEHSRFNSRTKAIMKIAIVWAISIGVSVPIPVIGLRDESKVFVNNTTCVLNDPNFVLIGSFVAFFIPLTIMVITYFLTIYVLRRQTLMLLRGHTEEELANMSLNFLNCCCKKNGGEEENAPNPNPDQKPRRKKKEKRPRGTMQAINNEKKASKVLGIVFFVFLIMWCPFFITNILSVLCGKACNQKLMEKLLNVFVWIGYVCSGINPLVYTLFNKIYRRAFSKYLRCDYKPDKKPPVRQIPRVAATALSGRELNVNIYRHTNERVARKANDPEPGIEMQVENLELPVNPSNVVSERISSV
Protocol: Hippocampal membrane preparations were obtained using previously described methods. ^24 , ^25 , ^26 Briefly, rats were decapitated and their brains were rapidly removed. Next, the hippocampus was dissected and subsequently homogenized in 40 volumes of ice‐cold buffer (50 mM Tris‐HCl Buffer, pH 7.4) and then centrifuged at 40,000 × g at 4°C for 10 min. The particles were re‐suspended and centrifuged again. In order to remove endogenous monoamines, the final suspension was incubated at 37°C for 20 min and then centrifuged as usual. The final pellets were frozen at −80°C at once for up to 1 week.
Human MT1/MT2 receptor membrane proteins were obtained from Perkin‐Elmer (ES‐620 [MT1] and ES‐621 [MT2]). The stably transfected 5‐HT2C receptor HEK293 cell line was prepared using a nucleus‐cytoplasm‐membrane preparation kit (Applagin Technologies Inc.). Briefly, cells were harvested at 4°C, 110 00 × g and centrifugation for 5 min. Homogenize pellets in the assay buffer (50 mM Tris‐HCl buffer containing 120 mM NaCl and 5 mM KCl, pH 7.4) and then centrifuged twice at 4°C, 36,000 × g for 15 min. […]
Receptor membrane protein, 5‐HT2C (50 μl), was added to all the tubes. Non‐specific binding was determined by the presence of unlabeled 10 μM 5‐HT and pre‐reacted for 30 min. […] Finally, 1 ml of scintillation fluid was added and the radioactive intensity measured by liquid scintillation counting.

mice [2] = experiment: Tail suspension test in mice; type: in vivo, ICR mice
Protocol: The tail suspension test (TST) was conducted as described earlier. ^28 , ^29 Eighty naive mice were randomly divided into eight treatment groups (n = 10/group). All mice received a single dose of the drug (p.o.). After 60 min of gavage administration, mice were suspended from the top of the apparatus (25 × 25 × 35 cm) using tape about 1 cm from the tail tip. The duration of immobility was recorded in the last 4 min for a total of 6 min. When mice are passively suspended immobile, they are judged to be stationary.

For `[2H]C([2H])([2H])Oc1cc2c(CCNC(C)=O)cccc2cc1Cl` [GW117], the “Locomotor activity, Crossing number” value (mice [1]; 5 mg/kg p.o.) was 86.8 ± 4.4, the “Locomotor activity, Rearing number” value (mice [1]; 5 mg/kg p.o.) was 22.7 ± 1.8 and the “Locomotor activity, Crossing number” value (mice [1]; 10 mg/kg p.o.) was 80.1 ± 4.8. The “Locomotor activity, Rearing number” value (mice [1]; 10 mg/kg p.o.) was 22.6 ± 2.1, the “Locomotor activity, Rearing number” value (mice [1]; 20 mg/kg p.o.) was 20.7 ± 1.5 and the “Locomotor activity, Crossing number” value (mice [1]; 40 mg/kg p.o.) was 86.3 ± 4.4. The “Locomotor activity, Rearing number” value (mice [1]; 40 mg/kg p.o.) was 21.3 ± 1.4, the “effect on number of crossings and rearings in the spontaneous activity test” value (mice [1]; mice, 5, 10, 20, or 40 mg/kg by gavage) was “had no effect” and the sucrose preference (CUS rats) was “markedly increased sucrose preference”. The Ki (5‐HT2C receptor) was 0.32 ± 0.08 nM, the “immobility time in TST” value (mice [2]; acute, p.o., 20 and 40 mg/kg, vs. vehicle) was “markedly reduced the immobility time” and the “minimal effective dose in TST” value (mice [2]; immobility time) was 20 mg/kg.
